Patent US11524945B2, “Compounds for treating ILK-mediated diseases” (The Cleveland Clinic Foundation, priority 2018, dated 2022)
pKd: −log10 of the molar value. ≈ marks a conversion by molar mass, not a printed value. Where two headings read alike, the source gives them in different places. Values belong to the molecule of their own block, whether it stands above or below them.

Columns and labels:
[1] = target: CYP 2A6 (Homo sapiens (Human), UniProt P11509); assay: CYP inhibition in human liver microsomes, 2A6; format: in vitro ADME
CYP 2A6, sequence (P11509 whole entry): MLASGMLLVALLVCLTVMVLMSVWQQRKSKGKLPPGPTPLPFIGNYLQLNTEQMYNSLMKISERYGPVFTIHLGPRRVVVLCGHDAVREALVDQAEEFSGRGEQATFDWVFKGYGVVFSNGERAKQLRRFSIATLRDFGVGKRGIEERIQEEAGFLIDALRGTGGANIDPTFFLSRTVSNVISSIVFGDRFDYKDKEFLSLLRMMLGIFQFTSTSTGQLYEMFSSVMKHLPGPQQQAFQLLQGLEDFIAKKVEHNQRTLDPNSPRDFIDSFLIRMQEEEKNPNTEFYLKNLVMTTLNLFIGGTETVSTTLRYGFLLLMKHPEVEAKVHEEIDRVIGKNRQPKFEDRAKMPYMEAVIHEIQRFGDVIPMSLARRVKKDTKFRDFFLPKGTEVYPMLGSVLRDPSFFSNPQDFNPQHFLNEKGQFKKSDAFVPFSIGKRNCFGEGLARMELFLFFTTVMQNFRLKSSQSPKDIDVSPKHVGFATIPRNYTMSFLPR

[2] = target: purified recombinant ILK (Homo sapiens (Human), UniProt Q13418); assay: ILK binding affinity, EnSpire fluorescence intensity; settings: for binding to purified ILK: fluorescence-based method; for Binding Difference ILK (Kd)/EGFR (Kd) / pKd: EnSpire fluorescence intensity; for pKd: read-out: ILK - Binding affinity
purified recombinant ILK, sequence (Q13418 whole entry): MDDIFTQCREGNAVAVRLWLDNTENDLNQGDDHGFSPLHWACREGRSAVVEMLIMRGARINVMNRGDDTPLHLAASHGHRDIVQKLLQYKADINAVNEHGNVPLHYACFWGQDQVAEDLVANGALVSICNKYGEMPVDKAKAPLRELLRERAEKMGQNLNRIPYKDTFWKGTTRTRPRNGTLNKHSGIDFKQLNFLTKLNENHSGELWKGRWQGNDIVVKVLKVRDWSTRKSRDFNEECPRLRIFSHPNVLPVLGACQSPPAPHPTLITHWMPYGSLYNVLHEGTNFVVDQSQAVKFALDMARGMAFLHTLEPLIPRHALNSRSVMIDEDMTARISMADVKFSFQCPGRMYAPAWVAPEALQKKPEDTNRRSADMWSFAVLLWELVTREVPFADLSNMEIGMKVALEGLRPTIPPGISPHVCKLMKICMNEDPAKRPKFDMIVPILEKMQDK

[3] = Stability in SIF; format: physicochemical
[4] = Stability in PBS at pH 7.4; format: physicochemical
[5] = target: EGFR (Homo sapiens (Human), UniProt P00533); assay: EGFR binding affinity, Nanotemper
EGFR, sequence (P00533 25-1210): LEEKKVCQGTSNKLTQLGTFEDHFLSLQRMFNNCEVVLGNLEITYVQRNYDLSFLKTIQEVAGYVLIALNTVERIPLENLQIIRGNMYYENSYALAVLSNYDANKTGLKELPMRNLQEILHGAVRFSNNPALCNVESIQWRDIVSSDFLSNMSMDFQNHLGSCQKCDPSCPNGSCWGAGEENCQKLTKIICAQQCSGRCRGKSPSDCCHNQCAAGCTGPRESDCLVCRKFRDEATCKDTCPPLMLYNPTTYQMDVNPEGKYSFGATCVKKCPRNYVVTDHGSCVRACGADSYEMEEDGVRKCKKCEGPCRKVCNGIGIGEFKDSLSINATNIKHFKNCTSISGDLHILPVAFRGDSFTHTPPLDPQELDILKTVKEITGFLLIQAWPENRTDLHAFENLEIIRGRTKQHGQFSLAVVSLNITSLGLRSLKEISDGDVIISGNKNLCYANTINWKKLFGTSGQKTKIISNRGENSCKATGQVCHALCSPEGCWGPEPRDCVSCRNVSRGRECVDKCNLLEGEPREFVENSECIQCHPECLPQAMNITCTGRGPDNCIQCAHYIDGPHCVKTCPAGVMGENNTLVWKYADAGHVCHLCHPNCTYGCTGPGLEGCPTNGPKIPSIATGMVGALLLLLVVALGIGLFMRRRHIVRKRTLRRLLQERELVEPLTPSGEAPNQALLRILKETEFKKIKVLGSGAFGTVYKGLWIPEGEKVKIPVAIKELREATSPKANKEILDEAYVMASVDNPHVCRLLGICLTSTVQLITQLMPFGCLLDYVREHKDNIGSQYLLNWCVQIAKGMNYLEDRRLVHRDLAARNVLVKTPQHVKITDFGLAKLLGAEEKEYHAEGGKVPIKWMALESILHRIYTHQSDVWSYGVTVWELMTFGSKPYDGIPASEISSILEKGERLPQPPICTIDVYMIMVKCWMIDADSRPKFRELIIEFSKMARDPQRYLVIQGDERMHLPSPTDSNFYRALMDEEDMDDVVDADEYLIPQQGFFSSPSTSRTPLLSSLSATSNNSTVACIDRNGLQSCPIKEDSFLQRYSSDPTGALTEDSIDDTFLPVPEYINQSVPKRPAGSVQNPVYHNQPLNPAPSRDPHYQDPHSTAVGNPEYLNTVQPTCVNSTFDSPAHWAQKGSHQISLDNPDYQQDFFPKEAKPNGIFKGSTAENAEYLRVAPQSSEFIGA

[6] = target: ILK (Homo sapiens (Human), UniProt Q13418); assay: ILK binding affinity, Nanotemper
ILK, sequence (Q13418 whole entry): as the sequence (Q13418 whole entry) above

[7] = test system: HepG2 cells; assay: Mitochondrial toxicity in HepG2 cells; format: cell-based; settings: HepG2 cells; for Fold change in IC50: Glucose vs Galactose; for IC50: Homo sapiens
[8] = Permeability in Caco2 cell line; format: in vitro ADME; settings: human; for efflux ratio / Papp A→B / Papp B→A: Caco-2; for efflux ratio: Caco2; for Papp A→B: Caco2, A-B; for Papp B→A: Caco2, B-A
[9] = Protein binding in human plasma; format: in vitro ADME
[10] = Protein binding in rat plasma; format: in vitro ADME
[11] = Protein binding in mouse plasma; format: in vitro ADME
[12] = Stability in rat plasma; format: in vitro ADME
[13] = Solubility in PBS at pH 7.4; format: physicochemical; settings: aqueous buffer
[14] = Stability in human plasma; format: in vitro ADME
[15] = Stability in mouse plasma; format: in vitro ADME
[16] = target: CYP 2C8 (Homo sapiens (Human), UniProt P10632); assay: CYP inhibition in human liver microsomes, 2C8; format: in vitro ADME
CYP 2C8, sequence (P10632 whole entry): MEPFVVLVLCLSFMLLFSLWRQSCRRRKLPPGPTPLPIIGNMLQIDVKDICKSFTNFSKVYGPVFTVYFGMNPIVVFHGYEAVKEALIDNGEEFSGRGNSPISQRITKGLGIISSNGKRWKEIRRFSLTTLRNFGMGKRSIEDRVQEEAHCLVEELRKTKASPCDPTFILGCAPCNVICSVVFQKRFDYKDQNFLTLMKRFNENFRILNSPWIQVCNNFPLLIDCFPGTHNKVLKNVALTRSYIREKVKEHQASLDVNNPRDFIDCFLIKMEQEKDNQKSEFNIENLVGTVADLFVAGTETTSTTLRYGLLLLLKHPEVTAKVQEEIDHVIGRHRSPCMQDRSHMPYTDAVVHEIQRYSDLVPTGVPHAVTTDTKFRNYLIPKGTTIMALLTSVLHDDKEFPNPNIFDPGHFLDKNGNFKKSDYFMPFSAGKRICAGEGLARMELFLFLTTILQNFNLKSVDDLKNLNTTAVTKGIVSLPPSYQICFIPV

[17] = Nanotemper, read-out: EGFR - Binding affinity
[18] = Nanotemper, read-out: ILK - Binding affinity
[19] = Galactose, read-out: IC50 (μM)_Galactose
[20] = Glucose, read-out: IC50 (μM)_Glucose
[21] = Caco-2, Caco2, AP-BL, read-out: Recovery (%)AP-BL
[22] = Caco-2, Caco2, BL-AP, read-out: Recovery (%)BL-AP

SMILES: N[C@@H]1C[C@H]1c1ccccc1 (racemic) [Tranylcypromine, reference compound]
IC50 [1]: 0.69 µM

SMILES: CN1Cc2c(ccc3c2OCO3)C2C(O)Cc3cc4c(cc3C21)OCO4 (stereo not drawn) [Chelidonine, reference compound]
binding to purified ILK [2]: no detectable binding

SMILES: O=C(O)CCCc1ccc(N(CCCl)CCCl)cc1 [Chlorambucil, reference compound]
Remaining Percentage (%) ([3]; 0 min): 100.00%
Remaining Percentage (%) ([3]; 30 min): 58.85%
Remaining Percentage (%) ([3]; 60 min): 33.12%
Remaining Percentage (%) ([3]; 120 min): 8.26%
Remaining Percentage (%) ([3]; 180 min): 2.57%
Remaining Percentage (%) ([3]; 240 min): 0.79%
Remaining Percentage (%) ([4]; PBS pH 7.4, 0 min): 100.00%
Remaining Percentage (%) ([4]; PBS pH 7.4, 30 min): 37.17%
Remaining Percentage (%) ([4]; PBS pH 7.4, 60 min): 11.53%
Remaining Percentage (%) ([4]; PBS pH 7.4, 120 min): 2.35%
Remaining Percentage (%) ([4]; PBS pH 7.4, 180 min): 0.09%
Remaining Percentage (%) ([4]; PBS pH 7.4, 240 min): 0.03%

pKd [5, 17]: 4.90
Binding Difference ILK (Kd)/EGFR (Kd) ([6]; Nanotemper): 0.5414
pKd [6, 18]: 5.16
SMILES: C#Cc1cc(Nc2ncnc3cc(OCCOC)ccc23)cc(OCCOC)c1 [Compound 1 New]

Binding Difference ILK (Kd)/EGFR (Kd) [2]: 1.34
pKd [2]: 5.81
SMILES: C#Cc1cc(C#C)cc(Nc2ncnc3cc(OC)c(OC)cc23)c1 [Compound 4]

pKd [6, 18]: 5.61
SMILES: C#Cc1cc(Nc2ncnc3cc(OCCOC)c(OCCOC)cc23)cc(OCCOC)c1 [Compound 7]

pKd ([5]; Nanotemper (Table 1), read-out: KD to EGFR): ~5.05
pKd [5, 17]: 5.05
Binding Difference ILK (Kd)/EGFR (Kd) ([6]; Nanotemper): 0.1043
pKd ([6]; Nanotemper (Table 1), read-out: KD to ILK): ~6.04
pKd [6, 18]: 6.04
SMILES: C#Cc1cc(Nc2ncnc3cc(OCCOC)c(OCCOC)cc23)cc(OCCOCC)c1 [Compound 8]

binding to purified ILK [2]: no detectable binding
SMILES: CNC(=O)CCc1cc(-c2ccc(-c3ccc(C(F)(F)F)cc3)cc2)n(-c2ccc(N3CCNCC3)cc2)n1 [Compound 22, reference compound]

SMILES: C[C@@H]1CC[C@@]2(OC1)O[C@H]1[C@@H](O)[C@H]3[C@@H]4CC[C@H]5C[C@@H](O[C@@H]6O[C@H](CO)[C@H](O[C@@H]7O[C@H](CO)[C@@H](O)[C@H](O[C@@H]8OC[C@@H](O)[C@H](O)[C@H]8O)[C@H]7O[C@@H]7O[C@H](CO)[C@H](O)[C@H](O[C@@H]8O[C@H](CO)[C@@H](O)[C@H](O)[C@H]8O)[C@H]7O)[C@H](O)[C@H]6O)[C@H](O)C[C@]5(C)[C@H]4CC[C@]3(C)[C@H]1[C@@H]2C [Digitonin]
Fold change in IC50 [7]: 2.40
IC50 [7, 19]: 1.79 µM
IC50 [7, 20]: 4.3 µM

recovery [8, 21]: 87.9%
recovery [8, 22]: 96.5%
efflux ratio [8]: 27
Papp A→B [8]: 0.61 ×10⁻⁶ cm/s
Papp B→A [8]: 16.6 ×10⁻⁶ cm/s
SMILES: C[C@H]1O[C@@H](O[C@H]2[C@@H](O)C[C@H](O[C@H]3[C@@H](O)C[C@H](O[C@H]4CC[C@@]5(C)[C@H](CC[C@@H]6[C@@H]5C[C@@H](O)[C@]5(C)[C@@H](C7=CC(=O)OC7)CC[C@]65O)C4)O[C@@H]3C)O[C@@H]2C)C[C@H](O)[C@@H]1O [Digoxin]

Binding Difference ILK (Kd)/EGFR (Kd) [2]: 2.075
pKd [2]: 5.81
SMILES: C#Cc1cc(Nc2ncnc3cc(OCCOC)c(OCCOC)cc23)ccc1C [Erlotinib-4-methylphenyl analog (E4ME)]

SMILES: CC(=O)N1CCN(c2ccc(OCC3COC(Cn4ccnc4)(c4ccc(Cl)cc4Cl)O3)cc2)CC1 (stereo not drawn) [Ketoconazole, reference compound]
% Bound [9]: 98.33%
% Recovery [9]: 101.01%
% Bound [10]: 99.63%
% Recovery [10]: 100.83%
% Bound [11]: 99.33%
% Recovery [11]: 104.25%

SMILES: CC[C@H](C)C(=O)O[C@H]1C[C@@H](C)C=C2C=C[C@H](C)[C@H](CC[C@@H]3C[C@@H](O)CC(=O)O3)[C@H]21 [Mevinolin, reference compound]
Remaining Percentage (%) ([12]; 0 min): 100.00%
Remaining Percentage (%) ([12]; 15 min): 3.78%
Remaining Percentage (%) ([12]; 30 min): 0.00%
Remaining Percentage (%) ([12]; 45 min): 0.00%
Remaining Percentage (%) ([12]; 60 min): 0.00%
Remaining Percentage (%) ([12]; 120 min): 0.00%

SMILES: CCc1nn(CCCN2CCN(c3cccc(Cl)c3)CC2)c(=O)n1CCOc1ccccc1 [Nefazodone]
Fold change in IC50 [7]: 11.33
IC50 [7, 19]: 6.82 µM
IC50 [7, 20]: 77.2 µM

recovery [8, 21]: 85.1%
recovery [8, 22]: 99%
efflux ratio [8]: 2.41
Papp B→A [8]: 30.1 ×10⁻⁶ cm/s
SMILES: COc1cc2nc(N3CCN(C(=O)c4ccco4)CC3)nc(N)c2cc1OC [Prazosin]

SMILES: CC(=O)[C@H]1CC[C@H]2[C@@H]3CCC4=CC(=O)CC[C@]4(C)[C@H]3CC[C@]12C [Progesterone, reference compound]
solubility [13]: 13.9 µM (≈ 4.36 µg/mL)

Remaining Percentage (%) ([14]; 0 min): 100.00%
Remaining Percentage (%) ([14]; 15 min): 54.01%
Remaining Percentage (%) ([14]; 30 min): 26.58%
Remaining Percentage (%) ([14]; 45 min): 9.84%
Remaining Percentage (%) ([14]; 60 min): 3.10%
Remaining Percentage (%) ([14]; 120 min): 0.13%
Remaining Percentage (%) ([15]; 0 min): 100.00%
Remaining Percentage (%) ([15]; 15 min): 74.15%
Remaining Percentage (%) ([15]; 30 min): 64.03%
Remaining Percentage (%) ([15]; 45 min): 48.07%
Remaining Percentage (%) ([15]; 60 min): 37.61%
Remaining Percentage (%) ([15]; 120 min): 14.60%
SMILES: CC(C)[N+](C)(CCOC(=O)C1c2ccccc2Oc2ccccc21)C(C)C [Propantheline, reference compound]

recovery [8, 21]: 60.8%
recovery [8, 22]: 80%
efflux ratio [8]: 0.82
Papp A→B [8]: 19.5 ×10⁻⁶ cm/s
Papp B→A [8]: 15.9 ×10⁻⁶ cm/s
SMILES: CC(C)NCC(O)COc1cccc2ccccc12 (stereo not drawn) [Propranolol]

binding to purified ILK [2]: no detectable binding
SMILES: CC1=NN(C(=O)CC(=O)Nc2ccc(C)cc2)C(=O)C1/N=N/c1cccc(C(=O)O)c1 (stereo not drawn) [QLT0267-like compound (QLT0267), reference compound]

IC50 [16]: 3.72 µM
SMILES: C=C[C@H]1C[N@@]2CC[C@H]1C[C@@H]2[C@@H](O)c1ccnc2ccc(OC)cc12 [Quinidine, reference compound]
